In publication PMC3745399, “An NO Donor Approach to Neuroprotective and Procognitive Estrogen Therapy Overcomes Loss of NO Synthase Function and Potentially Thrombotic Risk” (PLoS ONE, 2013):

How the values were obtained:
[1] = assay type: in vivo; settings: mouse, ip, 5 mg/kg
Protocol: All experiments were performed on 6–8 month male C57B1/6 mice (Charles River Laboratory) or eNOS(−/−) animals. Animals were injected (i.p.) at various time points before sacrifice at the doses specified. After euthanasia via CO2, plasma was collected, and cortices and hippocampi were collected after PBS perfusion and stored at −80°C. Tissue samples were weighed and extracted with methanol. Plasma samples were extracted with cold acetonitrile. Quantitative analysis of drug concentrations in plasma and brain used internal standards spiked into plasma and brain homogenates before liquid extraction with acetonitrile or methanol, and separation and measurement was performed with LC-MS/MS tandem mass spectrometry. The supernatant (deproteinized) was analyzed by chemiluminescence with SIEVERS 280i nitric oxide analyzer.
Figure S3: SERM bioavailability in plasma and CNS of WT and eNOS (-/-) mice. […] (n=4).

[2] = system: C57Bl/6 mice or eNOS(−/−) mice; test: Step-through passive avoidance (STPA) memory model; assay type: in vivo, mouse; settings: SERM 2 mg/kg; for reversal of scopolamine-induced memory deficit (STPA latency): scopolamine 1 mg/kg i.p., tested 24 h after training; for reversal of scopolamine-induced memory deficit in eNOS KO mice (STPA): scopolamine 1 mg/kg
Protocol: In this assay, memory is tested 24 h after training and since drugs are only administered during training, any side effects, such as sedation, are highly unlikely to confound the testing results. Furthermore, criteria for training are uniform across all treatment groups. Previously, we have shown NO-donors to reverse cognitive deficits induced by attenuation of cholinergic signaling, [51], [52], [53].
Amnestic memory deficit was induced by i.p. injection of either scopolamine (1 mg/kg) or L-NAME (50 mg/kg) 30 min prior to training in C57Bl/6 male mice. SERMs (2 mg/kg) were given 20 min prior to training and latency was assessed 24 h after training with animals being removed from the task if latency >300 s. All SERMs, except F-DMA, restored scopolamine-induced deficits in STPA in C57Bl/6 animals.
All experiments were performed either on 6–8 month old male C57B1/6 mice or eNOS(−/−) animals. Scopolamine (1 mg/kg) or L-NAME (50 mg/kg) were injected (i.p.) 30 min prior to training, while SERMs (2 mg/kg) were injected 20 min prior to training. Mice were placed in the light compartment of the light/dark box, and as soon as they entered the dark compartment, they received an electric shock (0.5 mA, 60 Hz for 2 seconds). This training was repeated until latency to enter the dark side reached 300 s. At 24 h post-training, animals were individually placed in the light compartment and the latency to enter the dark compartment was recorded with a 300 s cutoff. Details of this widely used assay of behavior have been discussed previously for NO-donor compounds [53], [54], [55].

[3] = system: Ishikawa endometrial cancer cell line; test: ER-mediated transcriptional activity (antiestrogen) in Ishikawa cells; assay type: cell-based; settings: read-out: antiestrogen potency IC50, ER-mediated transcriptional activity
ERβ = ERβ (Homo sapiens, UniProt Q92731); test: ER binding affinity by competitive E2 displacement (ERβ)
Protocol: Raloxifene and DMA are structurally related SERMs acting as antagonists of estrogen action in mammary and endometrial cells. […] ER binding affinity was measured by competitive E2 displacement as previously described.

[4] = system: hippocampal slices from 16-month old male 3×Tg mice; test: LTP in CA1 of hippocampal slices after theta burst stimulation; parameters: species or system mouse; settings: 3×Tg slices; for enhancement of subsequent theta bursts during LTP induction: 100 nM; for end fEPSP: 100 nM added 30 min prior to TBS, untreated 3×Tg 97.0±6.4%, WT 134.7±10.3%
Protocol: LTP in the CA1 field of the hippocampus is a well-studied cellular model for learning and memory. […] At 16 months, an advanced age at which Alzheimer's-like neuropathology is well developed in these animals, studies on LTP have not previously been reported. Nevertheless, we observed a robust, reproducible deficit in LTP in these aged transgenic mice, with field excitatory post-synaptic potentials (fEPSP) showing an end fEPSP of 97.0±6.4% of baseline at 45 min post-TBS, compared to 134.7±10.3% observed in the wild type (WT) transgenic background controls (Fig. 3A,B).
Figure 3 Reversal of LTP deficit in aged 3×Tg mice by SERMs is GPR30 dependent. LTP was measured after TBS in the CA1 region of hippocampal sections from 16 month male 3×Tg mice or WT controls. Test compounds (SERMs 100 nM; G15 100 nM) were added 30 min prior to TBS. […] (C) Secondary analysis of theta bursts indicate action both during induction and stabilization of LTP, through a GPR30 dependent mechanism.
All experiments used 16-month old male 3×Tg transgenic or age-matched WT background controls. For electrophysiology, mice were rapidly decapitated, and brains were removed into an ice-cold aCSF solution (in mM: NaCl 124, KCl 3.0, KH2PO4 1.25, NaHCO3 25.7, D-glucose 10, L-ascorbate 2.0, MgSO4 2.5, and CaCl2 3.3) and sectioned on a tissue chopper into 400 µm sections. Slices were transported to a 37°C solution of aCSF, continuously bubbled with 95% O2/5% CO2, and allowed to recover at least 60 min before experimentation. After placement of a stimulation electrode in the Schaffer commissural fibers and recording electrodes with 2 M NaCl solution into the stratum radiatum of the CA1 area, stimulus intensity was set to evoke submaximal fEPSP and continuously monitored at 20 s intervals for at least 15 min to establish a stable baseline. SERMs (100 nM) and G15 (100 nM) were prepared fresh in perfusate and started at least 30 min before LTP induction to reach a new baseline after enhancement of basal synaptic transmission was observed. […] Resulting fEPSP was monitored at 20 s intervals for ∼60 min post TBS.

ERα = target: T1, ERα (Homo sapiens, UniProt P03372); test: ER binding affinity by competitive E2 displacement (ERα)
T1 sequence (P03372 1-595): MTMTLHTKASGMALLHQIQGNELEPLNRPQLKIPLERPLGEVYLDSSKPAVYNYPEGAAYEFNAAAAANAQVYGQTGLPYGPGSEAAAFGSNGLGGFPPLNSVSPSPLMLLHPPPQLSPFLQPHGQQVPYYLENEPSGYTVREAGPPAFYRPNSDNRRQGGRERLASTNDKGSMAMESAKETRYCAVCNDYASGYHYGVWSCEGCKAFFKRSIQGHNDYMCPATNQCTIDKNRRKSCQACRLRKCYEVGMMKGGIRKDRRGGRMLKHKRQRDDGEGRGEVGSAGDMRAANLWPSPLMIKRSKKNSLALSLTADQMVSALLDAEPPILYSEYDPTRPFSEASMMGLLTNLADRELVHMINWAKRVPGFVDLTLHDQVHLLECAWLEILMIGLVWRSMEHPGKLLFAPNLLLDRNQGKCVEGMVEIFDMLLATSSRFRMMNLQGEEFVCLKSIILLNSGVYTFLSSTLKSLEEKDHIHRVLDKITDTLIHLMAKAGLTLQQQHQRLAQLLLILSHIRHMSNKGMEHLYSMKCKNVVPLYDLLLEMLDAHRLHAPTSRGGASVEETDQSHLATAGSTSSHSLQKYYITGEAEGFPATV
Protocol: ER binding affinity was measured by competitive E2 displacement as previously described.

Sequence of ERβ (Q92731 whole entry, species assumed): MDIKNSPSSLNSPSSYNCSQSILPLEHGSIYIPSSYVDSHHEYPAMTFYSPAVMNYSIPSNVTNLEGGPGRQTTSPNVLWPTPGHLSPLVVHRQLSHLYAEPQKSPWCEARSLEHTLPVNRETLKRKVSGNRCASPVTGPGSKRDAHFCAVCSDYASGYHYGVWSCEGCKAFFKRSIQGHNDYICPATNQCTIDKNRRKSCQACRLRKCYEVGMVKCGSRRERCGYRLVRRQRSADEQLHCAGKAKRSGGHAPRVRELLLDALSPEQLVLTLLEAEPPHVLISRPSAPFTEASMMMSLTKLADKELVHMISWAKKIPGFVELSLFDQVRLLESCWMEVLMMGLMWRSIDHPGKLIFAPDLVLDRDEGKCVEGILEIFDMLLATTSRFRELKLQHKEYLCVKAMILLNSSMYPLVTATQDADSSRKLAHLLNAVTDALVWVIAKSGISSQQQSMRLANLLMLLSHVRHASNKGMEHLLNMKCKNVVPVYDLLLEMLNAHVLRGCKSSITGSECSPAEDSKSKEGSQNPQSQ

| SMILES | bioavailability in plasma and CNS ([1]; in vivo) | blood brain barrier permeability [1] | reversal of scopolamine-induced memory deficit (STPA latency) ([2]; C57Bl/6 male mice) | reversal of scopolamine-induced memory deficit in eNOS KO mice (STPA) [2] | IC50 [3] [nM] | IC50 (ERβ) [nM] | enhancement of subsequent theta bursts during LTP induction [4] | end fEPSP [4] | end fEPSP with G15 ([4]; DMA 100 nM + G15 100 nM) [%] | effect on LTP with ODQ (sGC inhibitor) ([4]; ODQ 10 nM, variable interburst interval, preliminary) | reversal of L-NAME-induced cognitive deficit (STPA latency) ([2]; C57Bl/6 male mice, L-NAME 50 mg/kg i.p.) | IC50 (ERα) [nM] |
| --- | --- | --- | --- | --- | --- | --- | --- | --- | --- | --- | --- | --- |
| Oc1ccc(-c2sc3cc(O)ccc3c2Oc2ccc(OCCN3CCCCC3)cc2)cc1 [DMA, desmethylarzoxifene] | substantial bioavailability with preferential retention in the hippocampus up to 2 h after administration | substantial blood brain barrier permeability | complete reversal of the memory deficit | not influenced by treatment with DMA | 0.1 ± 0.1 | 9.6 ± 1.9 | augmented | 144.9±8.7 % of baseline | 96.8±7.1 | ODQ blocks effect of DMA on LTP | – | – |
| O=[N+]([O-])OCCCC1CCN(CCOc2ccc(Oc3c(-c4ccc(O)cc4)sc4cc(O)ccc34)cc2)CC1 [NO-DMA, 3-(1-(2-(4-(6-hydroxy-2-(4-ydroxyphenyl)benzo[b]thiophen-3-yloxy)phenoxy)ethyl)piperidin-4-yl)propyl nitrate] | – | – | complete reversal of the memory deficit | significantly improved memory | 3.9 ± 1.3 | 24.4 ± 9.6 | augmented | 144.2±5.2 % of baseline | – | – | reversed by NO-DMA | 21.4 ± 6.7 |
